Source: a melting point compilation (Tetko et al.; mined from patent text by program, amines drawn as free bases though some values may be those of a salt)

melting point | Structure (SMILES)
143 to 145 °C | CN(C)Cc1cccc(CSCCNc2ncc(Cc3cccnc3)c(=O)[nH]2)c1
252 to 254 °C | NC(=O)c1ncn2c(-c3cccc(Cl)c3)ccnc12
198 to 200 °C | CSC1c2ccccc2COc2ccc(C(=O)O)cc21 (stereo not given)
126 to 127 °C | CC(C)(C)OC(=O)NCCNC(=O)c1cc(Cl)cc(Cl)n1
160 to 162 °C | CC(C)(C)CCNC(=O)c1coc(C2C3CCC(O3)C2Cc2ccccc2CCC(=O)O)n1 (stereo not given)
169 to 171 °C | COc1cc2c(cc1OC)C(Cc1cc(I)c(N)c(I)c1)NCC2 (stereo not given)
242 to 244 °C | O=C(O)c1cccc(-n2c(-c3ccc(Br)cc3)cc3c2CCCC3)c1
216 to 219 °C | O=C(Nc1cccc(Cl)c1C(=O)O)c1cccc(F)c1
220 to 222 °C | C#CCn1cnc2c(N)nc3ccccc3c21
100 to 101 °C | C[C@H](N=C(C(N)=O)C(C)(C)C)c1ccccc1
106 to 108 °C | O=C(NC1CCN(CCc2ccccc2F)C1)C12CC3CC(CC(C3)C1)C2 (stereo not given)
107 to 109 °C | c1ccc(-c2nnsc2-c2ccc3c(c2)OCO3)cc1
145 °C | COc1ccc(C(=O)C2CCC(C)(C(=O)O)C2(C)C)c(OC)c1 (stereo not given)
64 to 65 °C | Cc1ccccc1COC1COC(c2ccco2)OC1 (stereo not given)
108 °C | COc1cc(Br)ccc1OCc1ccc2ccccc2c1
145 to 148 °C | COc1ccc(C=CCCCCOc2ccc(S(=O)(=O)c3cccc(C(=O)O)c3)cc2CCC(=O)O)cc1
158 to 160 °C | CC1(C)Oc2cc(N)c(C#N)cc2[C@@H](N2CCCC2)[C@@H]1O (relative stereo)
206 to 208 °C | CC(=O)c1ccc2c(c1)c(=O)c(C(=O)O)cn2Cc1ccc(F)cc1
191 to 192 °C | CCn1ncc2c(NCc3ccncc3)c3ccccc3nc21
120 to 122 °C | CNC(=O)C(C)Oc1ncn(-c2cccc(Cl)c2)n1 (stereo not given)
96 to 97 °C | COCCNC(=O)c1cccc(-c2cccc3cc(Cc4cc(F)cc(F)c4)sc23)c1
126 to 128 °C | CC(=O)NC1CCN(CCC2CCOc3ccccc32)CC1 (stereo not given)
164 to 165 °C | COC(=O)c1c(Br)ccc2[nH]ncc12
90 to 92 °C | Cc1ccc(NN)c2c1CC(C)O2 (stereo not given)
180 to 182 °C | COc1ccc2c(Cc3ncc(Cl)cc3Cl)nncc2c1C=Cc1ccccc1
213 °C | CCN1CCCC1CNC(=O)c1c(Br)c(Br)c([N+](=O)[O-])c2c1OCCO2 (stereo not given)

melting point | Structure (SMILES)
124 to 125 °C | CCCCCCCCC1OC(=O)c2cc(N)ccc21 (stereo not given)
204 to 206 °C | CC(=O)NC(=Cc1c[nH]c2cc(C)ccc12)C(=O)O
63 to 75 °C | BrCc1ccccc1CCc1ccc(Br)cc1
110 to 111 °C | O=Cc1nn(-c2ccc(Cl)cc2)nc1-c1ccccc1
247 °C | N#CC(=Cc1ccc(O)c(O)c1)C(N)=O
175 to 176 °C | O=c1ccn(C2OC(C(O)CO)C(O)C2O)c(=O)[nH]1 (stereo not given)
174 to 176 °C | Cc1cccc2ncc(C(=O)NC3CCCCC3)c(=O)n12
112 to 114 °C | COc1ccc(CN2C(=O)C3(COc4cc(O)c(C#N)cc43)c3ccccc32)cc1 (stereo not given)
49.3 to 50 °C | CCCCCCC(O)CC(=O)O (stereo not given)
199 to 201 °C | COc1ccc(CC(=O)NC(NC(Cc2ccccc2C)=NC#N)C(C)(C)C)cc1 (stereo not given)
115 to 116 °C | C#CCCn1ncc2c(N)c(C(=O)OCC=C)c(C)nc21
231 to 232 °C | CC(C)Oc1ccc([N+](=O)[O-])cc1NC(=O)Nc1cccnc1
321 to 325 °C | O=C(O)C1(c2ccc(Nc3nc(C4CCCC4)nc4c3CCC4)cc2)CCCC1
113 to 114 °C | C=CCn1nc(C)c(C(=O)c2ccc(Cl)cc2Cl)c1OS(=O)(=O)c1ccc(C)cc1
199 to 202 °C | CC(=O)Nc1cc2c(cc1[N+](=O)[O-])N(C(C)=O)CCO2
124 to 126 °C | CCOC(=O)Nc1c(C)cc(Cl)cc1C(=O)O
243 to 245 °C | O=c1[nH]sc2c1c(=O)c1cc(F)c(F)c(F)c1n2C1CC1
112 to 113 °C | CCOC(=O)N1C(=O)[C@H](O)[C@@H]1c1ccccc1
164 to 166 °C | CC(C)c1cccc(C(C)C)c1NC(=O)CNC(c1ccccc1)c1cccs1 (stereo not given)
184 °C | CCN1CCN([C@](O)(CNC(=O)c2ccc(OCc3cc(C)nc4ccccc34)cc2)C(N)=O)CC1
164 to 166 °C | COc1cccc(C=CC(=O)NC2CCNC(=O)C2)c1OC (stereo not given)
75.2 to 76.5 °C | CCCCCCCCCCCCCCCCC(O)CN (stereo not given)
195 to 196 °C | COC(=O)c1cccc2c(-c3ccc(O)cc3)n(C(C)C)nc12
167 to 168 °C | CO/N=C(\C)[C@H]1CC[C@H]2[C@@H]3CC=C4C[C@@H](O)CC[C@]4(C)[C@H]3CC[C@]12C
107 to 109 °C | COc1ccc(-c2ncc(Cc3ccccc3)nc2-c2ccc(OC)cc2)cc1
147 to 148 °C | CS(=O)(=O)N(CCBr)N(S(C)(=O)=O)S(C)(=O)=O

melting point | Structure (SMILES)
148 to 149 °C | NC(=O)c1ccc(OCCn2ccnc2)cc1
140 to 142 °C | COC(=O)c1ccccc1NC(=O)CNc1ccccc1
112 to 114 °C | CC(=O)c1cc(S(=O)(=O)c2ccccc2)ccc1OC[C@@H]1CO1
140 to 142 °C | COc1ccc2c3c(c(=O)oc2c1)CN(Cc1ccccn1)CC3
122 °C | OCc1ccc(-c2cn(Cc3ccccc3)c3ccccc23)cc1
94 to 95 °C | Cc1oc2c(C)c(C)c(NCc3ccccc3)c(C)c2c1-c1ccc(C(C)C)cc1
108 °C | CC1(C)C(=O)N(CCCN(CCCN2C(=O)c3ccccc3C(C)(C)C2=O)Cc2ccccc2)C(=O)c2ccccc21
169 to 172 °C | Cc1cccc2nc3c(cc12)oc1cccc(Cl)c13
84.9 °C | CCCCOc1ccc(-c2nc(CCOS(=O)(=O)c3ccc(C)cc3)c(C)o2)cc1
105 to 107 °C | OC(Cc1ccccn1)c1ccccc1 (stereo not given)
156 to 158 °C | O=C(O)C(Sc1ccccc1)c1ccc(Oc2ccc(Cl)cc2)cc1 (stereo not given)
286 to 290 °C | CNC1(C)CN(c2cc3c(cc2F)c(=O)c2c(=O)[nH]sc2n3C2CC2)C1
98 to 99 °C | CCc1c(C(=O)c2cc(C)cc(C)c2)n(C/C=C\c2ccccc2)c(=O)[nH]c1=O
117 to 120 °C | O=C(Cl)C=C(c1ccccc1)c1ccc([N+](=O)[O-])cc1
119 to 120 °C | OC(c1ccc2c(c1)OCCN2)(C(F)(F)F)C(F)(F)F
198 to 201 °C | CC1CC(c2c[nH]c(-c3ccc(F)cc3)c2-c2ccncc2)=CCN1C (stereo not given)
216 to 217 °C | CC(C)Cn1c(CNC(=O)OC(C)(C)C)c(-c2cccs2)c2cc(O)ccc2c1=O
65 to 85 °C | CC(CCc1cccc(F)c1)NCC(O)c1ccc(F)c(S(N)(=O)=O)c1 (stereo not given)
110 °C | COC(=O)CC(C(OC)OC)C(C)(C)S(=O)(=O)c1ccc(C)cc1 (stereo not given)
80 to 81 °C | Cc1c(CO)ncc(Br)c1N1CCCCC1
119 to 121 °C | Cc1ccc(CCc2ccnc(N)c2N)cc1
75 to 78 °C | Cc1cc2ccccc2n1Nc1ccncc1
215 to 216 °C | CCOc1nn(-c2c(Cl)cc(Cl)cc2Cl)c(N2C(=O)c3ccccc3C2=O)c1C(=O)c1ccccc1Cl
105 to 107 °C | CCOC(=O)Cn1nnnc1S(=O)(=O)Cc1ccccc1
126 to 128 °C | CCS(=O)(=O)N1CCSc2cccc(Cl)c2C1
177 °C | Cn1c(S(=O)(=O)c2ccc(C(=O)OCC(C)(C)C)c(Cl)c2)n[nH]c1=O

melting point | Structure (SMILES)
173 °C | CS(=O)(=O)c1ccc(-c2cc(C(=O)c3ccccc3)sc2N2CCOCC2)cc1
194 °C | O=C(NC(=O)c1ccc(F)cc1Cl)Nc1ccc(C(F)(F)F)cc1F
232 to 233 °C | COc1ccc2c(c1N)CN(S(C)(=O)=O)CC(=O)N2
107 to 110 °C | NC(=O)N(O)CC#Cc1cccc(Oc2cccnc2)c1
117 to 119 °C | COC1=C(OC)C(=O)C2=C(CCC(CCOc3ccc(Cl)cc3)CC2)C1=O
> 200 °C | O=C1Nc2ccccc2C12COc1cc(F)c(F)cc12 (stereo not given)
298 to 301 °C | COc1ccc2cc3c(c(-c4ccc(C)cc4)c2c1)CNC3=O
144 to 149 °C | CCOC(=O)c1cnc(-c2ccccc2OCC)[nH]c1=O
203 to 205 °C | Cc1ccc(N2CCN([C@@H](Cc3ccc(OCCc4nc(-c5ccccc5)oc4C)c(Br)c3)C(=O)O)CC2)cc1
184 °C | CC(=O)Nc1cccc(-n2ncc(=O)n(Cc3ccc(Cl)cc3F)c2=O)c1
91 to 94 °C | NC(=O)c1ccc(CCCOCCCCCCNCC(O)c2cc(Cl)c(N)c(Cl)c2)cc1 (stereo not given)
220 to 221 °C | Cc1cc(C(=O)O)ccc1N1CCOCC1
169 to 171 °C | CCC(C)(C)NC(=O)NC1=CC(=O)OC1
143 to 148 °C | CNCCCn1c(-c2ccc(Br)cc2)csc1=Nc1ccccc1
123 °C | Clc1ccc(C2(CBr)OCC(COc3ccc(Cl)c4ccccc34)O2)c(Cl)c1 (stereo not given)
160 to 163 °C | CN(C)c1c(F)c(F)c(F)c2c1c(=O)cc(C(=O)O)n2C1CC1
195 to 196 °C | COc1cc(Cn2cnc3c(-c4ccco4)ncnc32)cc(OC)c1OC
31 to 32 °C | O=C(O)CCCCCCCCc1ccco1
65 to 66 °C | O=Cc1c(Cl)ncnc1Cl
254 to 256 °C | CC(SSc1ccccc1C(=O)Nc1ccc(S(N)(=O)=O)cc1)C(=O)NCC(=O)O (stereo not given)
227 to 229 °C | CNC(=O)Nc1ccc(CN2OCC(C)(C)C2=O)c(Cl)c1
129 °C | CC(=O)Nc1cc(Cl)ccc1CCOC(C)=O
252 °C | O=CNc1nc(-c2ccccc2)c2cc(Cl)ccc2n1

Structure (SMILES) | melting point
NCCc1c[nH]c2ccc3c(=O)n(CC4CCCCO4)ccc3c12 (stereo not given) | 260 to 262 °C
COC(=O)c1cccnc1CN1C(=O)C(NC(=O)Nc2cccc(C)c2)N=C(c2ccccc2F)c2ccccc21 (racemic) | 171 to 175 °C
CC(=O)c1sccc1CBr | 62 to 64 °C
Cc1cccc2c(=O)n(CCCN3CC=C(c4ccc(Cl)cc4)CC3)c(=O)[nH]c12 | 215 to 217 °C
